Values belong to the molecule of their own block, whether it stands above or below them.
Key:
P-glycoprotein (P-gp) = target: T1, P-glycoprotein (P-gp) (Homo sapiens, UniProt P08183); experiment: Rhodamine 123 accumulation assay (flow cytometry); assay type: cell-based; design: key to FAR (fluorescence activity ratio): FAR = (Colo320 treated/control)/(Colo205 treated/control); details: for FSC / SSC: Colo 320
T1 construct: Colo 320/MDR-LRP (ATCC-CCL-220.1) resistant to anticancer agents expressing ABCB1
Protocol: The cell numbers of the human colon adenocarcinoma cell lines were adjusted to 2 × 10^6 cells/mL, re-suspended in serum-free RPMI 1640 medium, and distributed in 0.5 mL aliquots into Eppendorf centrifuge tubes. The tested compounds were added at concentrations of 2 or 20 μM, and the samples were incubated for 10 min at room temperature. Tariquidar was applied as positive control at 0.2 μM. DMSO at 2% v/v was used as solvent control. Next, 10 µL (5.2 µM final concentration) of the fluorochrome and ABCB1 substrate rhodamine 123 (Sigma) were added to the samples and the cells were incubated for a further 20 min at 37 °C, washed twice, and re-suspended in 1 mL PBS for analysis. The fluorescence of the cell population was measured with a PartecCyFlow® flow cytometer (Partec, Münster, Germany). The fluorescence activity ratio was calculated as the quotient between the FL-1 of the treated/untreated resistant Colo 320 cell line over the treated/untreated sensitive Colo 205 cell line according to the following equation [31]:(1) FAR = Colo320treated/Colo320control/Colo205treated/Colo205control

Colo 205 = experiment: Assay for cytotoxic effect (MTT); assay type: cell-based, human; details: for IC50: sensitive Colo 205 cells, MTT, 24 h
Protocol: (§1) The human colon adenocarcinoma cell lines, the Colo 205 (ATCC-CCL-222) doxorubicin-sensitive parent and Colo 320/MDR-LRP (ATCC-CCL-220.1) resistant to anticancer agents expressing ABCB1, were purchased from LGC Promochem (Teddington, UK). The cells were cultured in RPMI-1640 medium supplemented with 10% heat-inactivated fetal bovine serum (FBS), 2 mM L-glutamine, 1 mM Na-pyruvate, 100 mM Hepes, nystatin, and a penicillin–streptomycin mixture in concentrations of 100 U/L and 10 mg/L, respectively. The MRC-5 (ATCC CCL-171) human embryonic lung fibroblast cell line (LGC Promochem) was cultured in EMEM medium, supplemented with 1% nonessential amino acid (NEAA) mixture, 10% heat-inactivated FBS, 2 mM L-glutamine, 1 mM Na-pyruvate, nystatin, and a penicillin–streptomycin mixture in concentrations of 100 U/L and 10 mg/L, respectively. The cell lines were incubated in a humidified atmosphere (5% CO2, 95% air) at 37 °C.
(§2) The effects of increasing concentrations of the compounds on cell growth were tested in 96-well flat-bottomed microtiter plates. The two-fold serial dilutions of the tested compounds were made starting with 100 μM. Then, 10^4 of human colonic adenocarcinoma cells in 100 μL of the medium (RPMI-1640) were added to each well, except for the medium control wells. The adherent human embryonic lung fibroblast cell line (10^4/well) was seeded in EMEM medium in 96-well flat-bottomed microtiter plates for 4 h before the assay. The serial dilutions of the compounds were made in a separate plate starting with 100 μM, and then transferred to the plates containing the adherent corresponding cell line. Culture plates were incubated at 37 °C for 24 h; at the end of the incubation period, 20 μL of MTT (thiazolyl blue tetrazolium bromide) solution (from a 5 mg/mL stock solution) were added to each well. After incubation at 37 °C for 4 h, 100 μL of sodium dodecyl sulfate (SDS) solution (10% SDS in 0.01 M HCl) were added to each well and the plates were further incubated at 37 °C overnight. Cell growth was determined by measuring the optical density (OD) at 540 nm (ref. 630 nm) with a Multiscan EX ELISA reader (Thermo Labsystems, Cheshire, WA, USA). Inhibition of cell growth was expressed as IC50 values, defined as the inhibitory dose that reduces the growth of the cells exposed to the tested compounds by 50%. IC50 values and the SD of triplicate experiments were calculated using GraphPad Prism software version 5.00 for Windows with nonlinear regression curve fit (GraphPad Software, San Diego, CA, USA; www.graphpad.com). The statistical analysis of data was performed using GraphPad Prism software version 5.00, applying the two-tailed t-test.

Colo 320 [1] = experiment: Assay for cytotoxic effect (MTT); assay type: cell-based, human; details: for IC50: resistant Colo 320 cells, MTT, 24 h
Protocol: as §1, §2

MRC-5 = experiment: Assay for cytotoxic effect (MTT); assay type: cell-based, human; details: for IC50: normal MRC-5 embryonal fibroblast cells, MTT, 24 h
Protocol: as §1, §2

Colo 320 [2] = experiment: Checkerboard combination assay with doxorubicin; assay type: cell-based, human; details: for Fraction affected: Colo 320
Protocol: A checkerboard microplate method was applied to study the effect of drug interactions between the compound 8 and the chemotherapeutic drug doxorubicin. The assay was carried out on Colo 320 colon adenocarcinoma cell line. The final concentration of the compounds and doxorubicin used in the combination experiment was chosen in accordance with their cytotoxicity towards this cell line. The dilutions of doxorubicin were made in a horizontal direction for the 100 μL volume, and the dilutions of the compounds were made vertically in the microtiter plate for the 50 μL volume. Then, 6 × 10^3 of Colo 320 cells in 50 μL of the medium were added to each well, except for the medium control wells. The plates were incubated for 72 h at 37 °C in 5% CO2 atmosphere. The cell growth rate was determined after MTT staining. At the end of the incubation period, 20 μL of MTT solution (from a stock solution of 5 mg/mL) were added to each well. After incubation at 37 °C for 4 h, 100 μL of SDS solution (10% in 0.01 M HCI) were added to each well and the plates were further incubated at 37 °C overnight. OD was measured at 540 nm (ref. 630 nm) with a Multiscan EX ELISA reader. Combination index (CI) values at 50% of the growth inhibition dose (ED50) were determined using CompuSyn software (ComboSyn, Inc., Paramus, NJ, USA) to plot four to five data points at each ratio. CI values were calculated by means of the median-effect equation, according to the Chou–Talalay method, where CI < 1, CI = 1, and CI > 1 represent synergism, additive effect (or no interaction), and antagonism, respectively.

[3] = test system: Escherichia coli ATCC 25922; experiment: Minimum inhibitory concentration by microdilution method; assay type: cell-based; details: ATCC25922, broth dilution, 18 h
[4] = test system: Salmonella enterica serovar Typhimurium 14028s; experiment: as above; assay type: cell-based; details: broth dilution, 18 h
[5] = test system: Staphylococcus aureus ATCC 25,923; experiment: as above; assay type: cell-based; details: ATCC25, broth dilution, 18 h
[6] = test system: S. aureus 27,213 (methicillin and ofloxacin resistant clinical isolate); experiment: as above; assay type: cell-based; details: Staphylococcus aureus; broth dilution, 18 h

T1 sequence (P08183 whole entry): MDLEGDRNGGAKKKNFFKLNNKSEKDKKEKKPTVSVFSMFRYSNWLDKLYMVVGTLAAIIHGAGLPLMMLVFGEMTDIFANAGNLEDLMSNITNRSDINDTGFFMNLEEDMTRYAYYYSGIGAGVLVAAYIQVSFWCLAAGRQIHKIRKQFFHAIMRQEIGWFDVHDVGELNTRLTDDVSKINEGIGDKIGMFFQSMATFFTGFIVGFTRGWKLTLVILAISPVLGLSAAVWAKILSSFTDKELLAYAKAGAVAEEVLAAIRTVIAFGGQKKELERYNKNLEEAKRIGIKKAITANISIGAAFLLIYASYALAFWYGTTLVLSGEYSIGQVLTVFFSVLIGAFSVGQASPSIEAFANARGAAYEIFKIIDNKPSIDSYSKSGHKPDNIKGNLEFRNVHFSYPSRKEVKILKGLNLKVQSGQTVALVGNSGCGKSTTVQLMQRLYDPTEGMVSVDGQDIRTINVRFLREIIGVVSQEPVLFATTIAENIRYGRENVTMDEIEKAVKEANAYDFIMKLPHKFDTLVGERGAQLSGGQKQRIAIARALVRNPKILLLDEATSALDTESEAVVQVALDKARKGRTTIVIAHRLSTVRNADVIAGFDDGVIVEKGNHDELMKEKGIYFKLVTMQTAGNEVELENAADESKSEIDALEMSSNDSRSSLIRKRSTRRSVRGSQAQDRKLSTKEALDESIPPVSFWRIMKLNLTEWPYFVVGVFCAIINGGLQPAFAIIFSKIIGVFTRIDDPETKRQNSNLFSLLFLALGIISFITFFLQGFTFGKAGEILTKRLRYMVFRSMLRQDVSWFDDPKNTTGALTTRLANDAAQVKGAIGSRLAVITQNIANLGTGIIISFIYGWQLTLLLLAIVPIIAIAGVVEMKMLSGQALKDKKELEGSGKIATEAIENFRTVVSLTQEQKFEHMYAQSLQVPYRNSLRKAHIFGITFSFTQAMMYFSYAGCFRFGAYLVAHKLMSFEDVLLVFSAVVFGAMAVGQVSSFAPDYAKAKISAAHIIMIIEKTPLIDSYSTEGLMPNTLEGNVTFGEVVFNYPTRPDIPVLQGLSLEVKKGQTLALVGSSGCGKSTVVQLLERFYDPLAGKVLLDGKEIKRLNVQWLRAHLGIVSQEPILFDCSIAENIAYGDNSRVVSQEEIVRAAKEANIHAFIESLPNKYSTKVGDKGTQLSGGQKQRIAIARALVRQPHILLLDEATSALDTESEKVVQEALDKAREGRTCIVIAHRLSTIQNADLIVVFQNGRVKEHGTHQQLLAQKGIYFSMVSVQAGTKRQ

- FSC (P-glycoprotein (P-gp); 0.2 μM): 1945
- SSC (P-glycoprotein (P-gp); 0.2 μM): 837
- FAR (fluorescence activity ratio) (P-glycoprotein (P-gp); 0.2 μM, Colo 320, rhodamine-123): 5.533
Molecule: COc1cc2c(cc1OC)CN(CCc1ccc(NC(=O)c3cc(OC)c(OC)cc3NC(=O)c3cnc4ccccc4c3)cc1)CC2 [Tariquidar, reference compound]

Molecule: ergosta-7,22-diene-3-one [Compound 8]
- IC50 (Colo 205): 11.7 ± 1.67 µM
- IC50 (Colo 320 [1]): 8.43 ± 1.1 µM
- IC50 (MRC-5): 7.92 ± 1.42 µM
- Dose Reduction Index (DRI) for experimental values (Colo 320 [2]; Fa 0.6829, combination FuTo III + Doxo): 18.211
- Dose Reduction Index (DRI) for experimental values (Colo 320 [2]; Fa 0.741889, combination FuTo III + Doxo): 10.119
- Dose Reduction Index (DRI) for experimental values (Colo 320 [2]; Fa 0.80679, combination FuTo III + Doxo): 5.811
- Dose Reduction Index (DRI) for experimental values (Colo 320 [2]; Fa 0.912987, combination FuTo III + Doxo): 2.045
- Fraction affected (Colo 320 [2]; FuTo III alone 6.25 uM): 0.0295
- Fraction affected (Colo 320 [2]; FuTo III alone 12.5 uM): 0.2522
- Fraction affected (Colo 320 [2]; FuTo III alone 25 uM): 0.5605
- Dm (median-effect dose) in the combination (Colo 320 [2]; FuTo III:Doxo ratio 11:1, dose of the named component, Colo 320, 72 h): 0.4671 µM
- combination index (CI) at the 50% growth inhibition dose (ED50) (Colo 320 [2]; compound 8 combined with doxorubicin, ratio 11.2:1, Colo 320, 72 h): 0.521 ± 0.15
- Dm (median-effect dose), drug alone (Colo 320 [2]; single drug, Colo 320, 72 h, CompuSyn): 21.37 µM
- FSC (P-glycoprotein (P-gp); 2 μM): 2099
- SSC (P-glycoprotein (P-gp); 2 μM): 857
- FAR (fluorescence activity ratio) (P-glycoprotein (P-gp); 2 μM, Colo 320, rhodamine-123): 0.872
- FL-1 (mean fluorescence of the cells) (P-glycoprotein (P-gp); 2 μM, Colo 320, rhodamine-123): 10.100

- FSC (P-glycoprotein (P-gp); 20 μM): 2095
- SSC (P-glycoprotein (P-gp); 20 μM): 891
- FAR (fluorescence activity ratio) (P-glycoprotein (P-gp); 20 μM, Colo 320, rhodamine-123): 1.053
- MIC [3]: > 100 µM
- MIC [4]: > 100 µM
- MIC [5]: > 100 µM
- MIC [6]: > 100 µM
Molecule: Cc1coc(C(=O)[C@@H](C)[C@H]2CC[C@@]3(C)C4=C(CC[C@]23C)[C@@]2(C)CC[C@@](C)(C(=O)O)[C@@H]2CC4)c1 [Compound 7, natalic acid]
- cytotoxic effect (in words) (Colo 205; Colo 205, applied concentration up to 100 μM): did not show any significant effect
- IC50 (Colo 205; Homo sapiens): > 100 µM
- cytotoxic effect (in words) (Colo 320 [1]; Colo 320, applied concentration up to 100 μM): did not show any significant effect
- IC50 (Colo 320 [1]; Homo sapiens): > 100 µM
- IC50 (MRC-5; Homo sapiens, MRC5): > 100 µM
- cytotoxic effect (in words) (MRC-5; MRC-5, applied concentration up to 100 μM): did not show any significant effect
